Like-named read-outs stand apart in the source and are kept apart here.
What was measured:
[1] = Freezing point of caustic solutions; assay type: physicochemical
[2] = background statement on sodium hydroxide solutions, cited from earlier work
[3] = system: human skin; conditions: in vivo

Row | freezing point [1] [°C] | Structure (SMILES) | freeze point (begins to freeze / will freeze) ([2]; listed as 25% solution) [Celsius] | effect on human skin [3] | freeze point (begins to freeze / will freeze) [2] [Celsius]
1 | −18 | [Na+].[OH-] [25 wt % NaOH, sodium hydroxide] | −17 | immediate burning of the skin, followed with scarring | 
2 |  | [Na+].[OH-] [50% sodium hydroxide solution, sodium hydroxide] |  |  | 14

Reference: patent US11407647B2, “Synthetic caustic composition” (FLUID ENERGY GROUP LTD., priority 2017, dated 2022)
